The NIST ThermoML archive (doi:10.1016/j.jct.2016.08.005)

Settings: Liquid, Vibrating tube method

Cc1cccs1 [2-methylthiophene]
Settings	mass density [kg/m3]
283.15 K, 100 kPa	1030.98
283.15 K, 2000 kPa	1032.44
283.15 K, 5000 kPa	1034.69
283.15 K, 7000 kPa	1036.18
283.15 K, 10000 kPa	1038.39
283.15 K, 15000 kPa	1041.92
283.15 K, 20000 kPa	1045.36
283.15 K, 25000 kPa	1048.69
283.15 K, 30000 kPa	1051.93
283.15 K, 35000 kPa	1055.07
283.15 K, 40000 kPa	1058.12
283.15 K, 45000 kPa	1061.09
283.15 K, 50000 kPa	1063.97
283.15 K, 55000 kPa	1066.8
283.15 K, 60000 kPa	1069.53
283.15 K, 65000 kPa	1072.21
288.15 K, 100 kPa	1025.61
288.15 K, 2000 kPa	1027.12
288.15 K, 5000 kPa	1029.45
288.15 K, 7000 kPa	1030.97
288.15 K, 10000 kPa	1033.22
288.15 K, 15000 kPa	1036.86
288.15 K, 20000 kPa	1040.39
288.15 K, 25000 kPa	1043.79
288.15 K, 30000 kPa	1047.1
288.15 K, 35000 kPa	1050.32
288.15 K, 40000 kPa	1053.43
288.15 K, 45000 kPa	1056.47
288.15 K, 50000 kPa	1059.42
288.15 K, 55000 kPa	1062.27
288.15 K, 60000 kPa	1065.07
288.15 K, 65000 kPa	1067.79
293.15 K, 100 kPa	1020.2
293.15 K, 2000 kPa	1021.76
293.15 K, 5000 kPa	1024.16
293.15 K, 7000 kPa	1025.73
293.15 K, 10000 kPa	1028.04
293.15 K, 15000 kPa	1031.77
293.15 K, 20000 kPa	1035.39
293.15 K, 25000 kPa	1038.88
293.15 K, 30000 kPa	1042.27
293.15 K, 35000 kPa	1045.56
293.15 K, 40000 kPa	1048.68
293.15 K, 45000 kPa	1051.85
293.15 K, 50000 kPa	1054.87
293.15 K, 55000 kPa	1057.79
293.15 K, 60000 kPa	1060.64
293.15 K, 65000 kPa	1063.42
298.15 K, 100 kPa	1014.79
298.15 K, 2000 kPa	1016.39
298.15 K, 5000 kPa	1018.85
298.15 K, 7000 kPa	1020.48
298.15 K, 10000 kPa	1022.84
298.15 K, 15000 kPa	1026.7
298.15 K, 20000 kPa	1030.4
298.15 K, 25000 kPa	1033.98
298.15 K, 30000 kPa	1037.45
298.15 K, 35000 kPa	1040.82
298.15 K, 40000 kPa	1044.09
298.15 K, 45000 kPa	1047.25
298.15 K, 50000 kPa	1050.33
298.15 K, 55000 kPa	1053.31
298.15 K, 60000 kPa	1056.23
298.15 K, 65000 kPa	1059.07
303.15 K, 100 kPa	1009.39
303.15 K, 2000 kPa	1011.03
303.15 K, 5000 kPa	1013.57
303.15 K, 7000 kPa	1015.23
303.15 K, 10000 kPa	1017.69
303.15 K, 15000 kPa	1021.62
303.15 K, 20000 kPa	1025.42
303.15 K, 25000 kPa	1029.11
303.15 K, 30000 kPa	1032.66
303.15 K, 35000 kPa	1036.1
303.15 K, 40000 kPa	1039.44
303.15 K, 45000 kPa	1042.68
303.15 K, 50000 kPa	1045.81
303.15 K, 55000 kPa	1048.89
303.15 K, 60000 kPa	1051.84
303.15 K, 65000 kPa	1054.72
308.15 K, 100 kPa	1003.95
308.15 K, 2000 kPa	1005.62
308.15 K, 5000 kPa	1008.23
308.15 K, 7000 kPa	1009.96
308.15 K, 10000 kPa	1012.46
308.15 K, 15000 kPa	1016.53
308.15 K, 20000 kPa	1020.43
308.15 K, 25000 kPa	1024.2
308.15 K, 30000 kPa	1027.84
308.15 K, 35000 kPa	1031.36
308.15 K, 40000 kPa	1034.78
308.15 K, 45000 kPa	1038.08
308.15 K, 50000 kPa	1041.29
308.15 K, 55000 kPa	1044.4
308.15 K, 60000 kPa	1047.43
308.15 K, 65000 kPa	1050.39
313.15 K, 100 kPa	998.5
313.15 K, 2000 kPa	1000.23
313.15 K, 5000 kPa	1002.93
313.15 K, 7000 kPa	1004.7
313.15 K, 10000 kPa	1007.28
313.15 K, 15000 kPa	1011.45
313.15 K, 20000 kPa	1015.45
313.15 K, 25000 kPa	1019.32
313.15 K, 30000 kPa	1023.04
313.15 K, 35000 kPa	1026.65
313.15 K, 40000 kPa	1030.14
313.15 K, 45000 kPa	1033.52
313.15 K, 50000 kPa	1036.79
313.15 K, 55000 kPa	1039.99
313.15 K, 60000 kPa	1043.07
313.15 K, 65000 kPa	1046.08
318.15 K, 100 kPa	993.03
318.15 K, 2000 kPa	994.81
318.15 K, 5000 kPa	997.59
318.15 K, 7000 kPa	999.4
318.15 K, 10000 kPa	1002.05
318.15 K, 15000 kPa	1006.33
318.15 K, 20000 kPa	1010.45
318.15 K, 25000 kPa	1014.42
318.15 K, 30000 kPa	1018.23
318.15 K, 35000 kPa	1021.93
318.15 K, 40000 kPa	1025.49
318.15 K, 45000 kPa	1028.94
318.15 K, 50000 kPa	1032.3
318.15 K, 55000 kPa	1035.54
318.15 K, 60000 kPa	1038.69
318.15 K, 65000 kPa	1041.75
323.15 K, 100 kPa	987.55
323.15 K, 2000 kPa	989.38
323.15 K, 5000 kPa	992.24
323.15 K, 7000 kPa	994.11
323.15 K, 10000 kPa	996.84
323.15 K, 15000 kPa	1001.25
323.15 K, 20000 kPa	1005.47
323.15 K, 25000 kPa	1009.52
323.15 K, 30000 kPa	1013.45
323.15 K, 35000 kPa	1017.21
323.15 K, 40000 kPa	1020.87
323.15 K, 45000 kPa	1024.41
323.15 K, 50000 kPa	1027.81
323.15 K, 55000 kPa	1031.14
323.15 K, 60000 kPa	1034.36
323.15 K, 65000 kPa	1037.48
328.15 K, 100 kPa	982.01
328.15 K, 2000 kPa	983.93
328.15 K, 5000 kPa	986.87
328.15 K, 7000 kPa	988.79
328.15 K, 10000 kPa	991.61
328.15 K, 15000 kPa	996.12
328.15 K, 20000 kPa	1000.47
328.15 K, 25000 kPa	1004.64
328.15 K, 30000 kPa	1008.65
328.15 K, 35000 kPa	1012.52
328.15 K, 40000 kPa	1016.24
328.15 K, 45000 kPa	1019.86
328.15 K, 50000 kPa	1023.37
328.15 K, 55000 kPa	1026.73
328.15 K, 60000 kPa	1030.01
328.15 K, 65000 kPa	1033.2
333.15 K, 100 kPa	976.49
333.15 K, 2000 kPa	978.46
333.15 K, 5000 kPa	981.49
333.15 K, 7000 kPa	983.47
333.15 K, 10000 kPa	986.36
333.15 K, 15000 kPa	991.02
333.15 K, 20000 kPa	995.46
333.15 K, 25000 kPa	999.74
333.15 K, 30000 kPa	1003.86
333.15 K, 35000 kPa	1007.82
333.15 K, 40000 kPa	1011.63
333.15 K, 45000 kPa	1015.34
333.15 K, 50000 kPa	1018.9
333.15 K, 55000 kPa	1022.36
333.15 K, 60000 kPa	1025.71
333.15 K, 65000 kPa	1028.94
338.15 K, 100 kPa	970.87
338.15 K, 2000 kPa	972.92
338.15 K, 5000 kPa	976.06
338.15 K, 7000 kPa	978.09
338.15 K, 10000 kPa	981.08
338.15 K, 15000 kPa	985.87
338.15 K, 20000 kPa	990.45
338.15 K, 25000 kPa	994.85
338.15 K, 30000 kPa	999.06
338.15 K, 35000 kPa	1003.09
338.15 K, 40000 kPa	1007.02
338.15 K, 45000 kPa	1010.79
338.15 K, 50000 kPa	1014.44
338.15 K, 55000 kPa	1017.97
338.15 K, 60000 kPa	1021.38
338.15 K, 65000 kPa	1024.7
